Experimental data as given in US20230109758A1 (priority 2018, published 2023).

Legend:
[1] = test system: C. beijerinckii DSM 6423; type: cell-based
[2] = test system: C. beijerinckii DSM 6423 ΔcatB; type: cell-based

CS(=O)(=O)c1ccc([C@@H](O)[C@@H](CO)NC(=O)C(Cl)Cl)cc1 [thiamphenicol]
Growth on thiamphenicol-supplemented medium [1]: able to grow | Growth on thiamphenicol-supplemented medium [2]: only the initial C. beijerinckii DSM 6423 strain is able to grow
